Test results taken from patent publication US6825170B2, “6-O-acyl ketolide antibacterials” (Ortho-McNeil Pharmaceutical, Inc., priority 2001, dated 2004).
Converted amounts (≈) assume the structure as drawn.

What was measured:
Test in all cases: MIC, microdilution broth method (NCCLS)
Assay type in all cases: cell-based
Details in all cases: 35° C., 16-20 hours
E. faecalis ATCC29212 = tested on: E. faecalis ATCC29212
Experimental: (§1) Minimal inhibitory concentration (MIC) has been an indicator of in vitro antibacterial activity widely used in the art. The in vitro antimicrobial activity of the compounds was determined by the microdilution broth method following the test method from the National Committee for Clinical Laboratory Standards (NCCLS). This method is described in the NCCLS Document M7-A4, Vol.17, No.2, “Methods for Dilution Antimicrobial Susceptibility Test for Bacteria that Grow Aerobically—Fourth Edition”, which is incorporated herein by reference.
(§2) In this method two-fold serial dilutions of drug in cation adjusted Mueller-Hinton broth are added to wells in microdilution trays. The test organisms are prepared by adjusting the turbidity of actively growing broth cultures so that the final concentration of test organism after it is added to the wells is approximately 5×10^4 CFU/well.
(§3) Following inoculation of the microdilution trays, the trays are incubated at 35° C. for 16-20 hours and then read. […] The amount of growth in the wells containing the test compound is compared with the amount of growth in the growth-control wells (no test compound) used in each tray. As set forth in Table 1, compounds of the present invention were tested against a variety of Gram positive and Gram negative pathogenic bacteria resulting in a range of activities depending on the organism tested.

H. influenzae ATCC49247 = tested on: H. influenzae ATCC49247
Experimental: as §1, §2, §3

S. aureus ATCC29213 = tested on: S. aureus ATCC29213
Experimental: as §1, §2, §3

S. pneumoniae ATCC49619 = tested on: S. pneumoniae ATCC49619
Experimental: as §1, §2, §3

CCC1OC(=O)C(C)C(=O)C(C)C(OC2OC(C)CC(N(C)C)C2O)C(C)(OC(=O)OCCCn2cnc3ccccc32)CC(C)C(=O)C(C)C2NC(=O)OC12C (centres unmarked) [Compound 159]
MIC (C: E. faecalis ATCC29212) (E. faecalis ATCC29212): 0.12 µg/mL (≈ 0.15 µM)
MIC (E: H. influenzae ATCC49247) (H. influenzae ATCC49247): 1 µg/mL (≈ 1.25 µM)
MIC (B: S. aureus ATCC29213) (S. aureus ATCC29213): 0.25 µg/mL (≈ 0.312 µM)
MIC (D: S. pneumoniae ATCC49619) (S. pneumoniae ATCC49619): 0.03 µg/mL (≈ 0.0375 µM)

CCC1OC(=O)C(C)C(=O)C(C)C(OC2OC(C)CC(N(C)C)C2O)C(C)(OC(=O)OCC(F)=Cc2ccc(-c3ncccn3)cc2)CC(C)C(=O)C(C)C2NC(=O)OC12C (centres unmarked) [Compound 160]
MIC (C: E. faecalis ATCC29212) (E. faecalis ATCC29212): 0.06 µg/mL (≈ 0.0702 µM)
MIC (E: H. influenzae ATCC49247) (H. influenzae ATCC49247): 1 µg/mL (≈ 1.17 µM)
MIC (B: S. aureus ATCC29213) (S. aureus ATCC29213): 0.12 µg/mL (≈ 0.14 µM)
MIC (D: S. pneumoniae ATCC49619) (S. pneumoniae ATCC49619): 0.03 µg/mL (≈ 0.0351 µM)

CCC1OC(=O)C(C)C(=O)C(C)C(OC2OC(C)CC(N(C)C)C2O)C(C)(OC(=O)OCC(F)=Cc2ccc(-c3cccnn3)cc2)CC(C)C(=O)C(C)C2NC(=O)OC12C (centres unmarked) [Compound 168]
MIC (C: E. faecalis ATCC29212) (E. faecalis ATCC29212): 0.06 µg/mL (≈ 0.0702 µM)
MIC (E: H. influenzae ATCC49247) (H. influenzae ATCC49247): 0.5 µg/mL (≈ 0.585 µM)
MIC (B: S. aureus ATCC29213) (S. aureus ATCC29213): 0.12 µg/mL (≈ 0.14 µM)
MIC (D: S. pneumoniae ATCC49619) (S. pneumoniae ATCC49619): ≦0.015 μg/mL

CCC1OC(=O)C(C)C(=O)C(C)C(OC2OC(C)CC(N(C)C)C2O)C(C)(OC(=O)OCC=C(F)c2ccc(-c3ncccn3)cc2)CC(C)C(=O)C(C)C2NC(=O)OC12C (centres unmarked) [Compound 224]
MIC (C: E. faecalis ATCC29212) (E. faecalis ATCC29212): 0.06 µg/mL (≈ 0.0702 µM)
MIC (E: H. influenzae ATCC49247) (H. influenzae ATCC49247): 2 µg/mL (≈ 2.34 µM)
MIC (B: S. aureus ATCC29213) (S. aureus ATCC29213): 0.12 µg/mL (≈ 0.14 µM)
MIC (D: S. pneumoniae ATCC49619) (S. pneumoniae ATCC49619): ≦0.015 μg/mL

CCC1OC(=O)C(C)C(=O)C(C)C(OC2OC(C)CC(N(C)C)C2O)C(C)(OC(=O)OCCCCc2ccc(-c3ncccn3)cc2)CC(C)C(=O)C(C)C2NC(=O)OC12C (centres unmarked) [Compound 286]
MIC (C: E. faecalis ATCC29212) (E. faecalis ATCC29212): 0.25 µg/mL (≈ 0.293 µM)
MIC (E: H. influenzae ATCC49247) (H. influenzae ATCC49247): 4 µg/mL (≈ 4.69 µM)
MIC (B: S. aureus ATCC29213) (S. aureus ATCC29213): 0.25 µg/mL (≈ 0.293 µM)
MIC (D: S. pneumoniae ATCC49619) (S. pneumoniae ATCC49619): 0.06 µg/mL (≈ 0.0703 µM)

CCC1OC(=O)C(C)C(=O)C(C)C(OC2OC(C)CC(N(C)C)C2O)C(C)(OC(=O)NOCc2ccc(-c3cnccn3)cc2)CC(C)C(=O)C(C)C2NC(=O)OC12C (centres unmarked) [Compound 601]
MIC (C: E. faecalis ATCC29212) (E. faecalis ATCC29212): 0.12 µg/mL (≈ 0.145 µM)
MIC (E: H. influenzae ATCC49247) (H. influenzae ATCC49247): 2 µg/mL (≈ 2.42 µM)
MIC (B: S. aureus ATCC29213) (S. aureus ATCC29213): 0.25 µg/mL (≈ 0.303 µM)
MIC (D: S. pneumoniae ATCC49619) (S. pneumoniae ATCC49619): 0.03 µg/mL (≈ 0.0363 µM)

CCC1OC(=O)C(C)C(=O)C(C)C(OC2OC(C)CC(N(C)C)C2O)C(C)(OC(=O)NOCC#Cc2ccc(-c3cnccn3)cc2)CC(C)C(=O)C(C)C2NC(=O)OC12C (centres unmarked) [Compound 603]
MIC (C: E. faecalis ATCC29212) (E. faecalis ATCC29212): 0.12 µg/mL (≈ 0.141 µM)
MIC (E: H. influenzae ATCC49247) (H. influenzae ATCC49247): 2 µg/mL (≈ 2.35 µM)
MIC (B: S. aureus ATCC29213) (S. aureus ATCC29213): 0.25 µg/mL (≈ 0.294 µM)
MIC (D: S. pneumoniae ATCC49619) (S. pneumoniae ATCC49619): 0.03 µg/mL (≈ 0.0353 µM)

CC[C@H]1OC(=O)[C@H](C)C(=O)[C@H](C)[C@@H](O[C@@H]2O[C@H](C)C[C@H](N(C)C)[C@H]2O)[C@](C)(OC(=O)NOCC#Cc2cnc3ccccc3c2)C[C@@H](C)C(=O)[C@H](C)[C@H]2NC(=O)O[C@@]21C [Compound 618]
MIC (C: E. faecalis ATCC29212) (E. faecalis ATCC29212): 0.06 µg/mL (≈ 0.0729 µM)
MIC (E: H. influenzae ATCC49247) (H. influenzae ATCC49247): 1 µg/mL (≈ 1.22 µM)
MIC (B: S. aureus ATCC29213) (S. aureus ATCC29213): 0.25 µg/mL (≈ 0.304 µM)
MIC (D: S. pneumoniae ATCC49619) (S. pneumoniae ATCC49619): 0.03 µg/mL (≈ 0.0365 µM)

CC[C@H]1OC(=O)[C@@](C)(F)C(=O)[C@H](C)[C@@H](O[C@@H]2O[C@H](C)C[C@H](N(C)C)[C@H]2O)[C@](C)(OC(=O)NOC/C=C/c2ccc(-c3ncccn3)cc2)C[C@@H](C)C(=O)[C@H](C)[C@H]2NC(=O)O[C@@]21C [Compound 622]
MIC (C: E. faecalis ATCC29212) (E. faecalis ATCC29212): 0.25 µg/mL (≈ 0.287 µM)
MIC (E: H. influenzae ATCC49247) (H. influenzae ATCC49247): 4 µg/mL (≈ 4.6 µM)
MIC (B: S. aureus ATCC29213) (S. aureus ATCC29213): 0.25 µg/mL (≈ 0.287 µM)
MIC (D: S. pneumoniae ATCC49619) (S. pneumoniae ATCC49619): 0.03 µg/mL (≈ 0.0345 µM)

CC[C@H]1OC(=O)[C@@](C)(F)C(=O)[C@H](C)[C@@H](O[C@@H]2O[C@H](C)C[C@H](N(C)C)[C@H]2O)[C@](C)(OC(=O)NOCC#Cc2cnc3ccccc3c2)C[C@@H](C)C(=O)[C@H](C)[C@H]2NC(=O)O[C@@]21C [Compound 623]
MIC (C: E. faecalis ATCC29212) (E. faecalis ATCC29212): 0.12 µg/mL (≈ 0.143 µM)
MIC (E: H. influenzae ATCC49247) (H. influenzae ATCC49247): 4 µg/mL (≈ 4.76 µM)
MIC (B: S. aureus ATCC29213) (S. aureus ATCC29213): 0.25 µg/mL (≈ 0.297 µM)
MIC (D: S. pneumoniae ATCC49619) (S. pneumoniae ATCC49619): 0.03 µg/mL (≈ 0.0357 µM)

CC[C@H]1OC(=O)[C@H](C)C(=O)[C@H](C)[C@@H](O[C@@H]2O[C@H](C)C[C@H](N(C)C)[C@H]2O)[C@](C)(OC(=O)NNS(=O)(=O)c2ccc(C)cc2)C[C@@H](C)C(=O)[C@H](C)[C@H]2NC(=O)O[C@@]21C [Compound 809]
MIC (C: E. faecalis ATCC29212) (E. faecalis ATCC29212): 0.5 µg/mL (≈ 0.617 µM)
MIC (E: H. influenzae ATCC49247) (H. influenzae ATCC49247): 2 µg/mL (≈ 2.47 µM)
MIC (B: S. aureus ATCC29213) (S. aureus ATCC29213): 1 µg/mL (≈ 1.23 µM)
MIC (D: S. pneumoniae ATCC49619) (S. pneumoniae ATCC49619): 0.03 µg/mL (≈ 0.037 µM)
